Patent US6525001B1, “Substituted pyrimidine and pyridine herbicides” (Mid-American Commercialization Corporation, priority 1997, dated 2003)

Columns and labels:
Format in all cases: in vivo
Design in all cases: key: 0 is no effect; 10 is complete control
[1] = system: wheat (Triticum aestivum); test: Test B pre-/postemergence
Summary of the method: (§1)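 Compounds in a surfactant-containing, non-phytotoxic solvent blend are applied to freshly planted seed (preemergence) and, concurrently, to seedlings of 2 to 18 cm at 1–4 leaves (postemergence). Plants stay in the greenhouse twelve to sixteen days and are then scored visually from 0 (no effect) to 10 (complete control).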

soybean (Glycine max) = test: Test B pre-/postemergence
Summary of the method: as §1

wild oat (Avena fatua) = test: Test B pre-/postemergence
Summary of the method: as §1

[2] = system: purple nutsedge (Cyperus rotundus); test: Test B pre-/postemergence
Summary of the method: as §1

corn (Zea mays) = test: Test B pre-/postemergence
Summary of the method: as §1

[3] = system: crabgrass (Digitaria sanguinalis); test: Test B pre-/postemergence
Summary of the method: as §1

[4] = system: giant foxtail (Setaria faberii); test: Test B pre-/postemergence
Summary of the method: as §1

[5] = system: bedstraw (Galium aparine); test: Test B pre-/postemergence
Summary of the method: as §1

[6] = system: sugar beet (Beta vulgaris); test: Test B pre-/postemergence
Summary of the method: as §1

rape (Brassica napus) = test: Test B pre-/postemergence
Summary of the method: as §1

[7] = system: velvetleaf (Abutilon theophrasti); test: Test B pre-/postemergence
Summary of the method: as §1

rice (Oryza sativa) = test: Test B flood test; details: for Plant response rating, Rice: Postemergence (flood test species)
Summary of the method: (§2)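 Read-out is a visual response score from 0 (no effect) to 10 (complete control), assigned by comparison with untreated controls. Treatment was applied at the 2-leaf stage, and plants stayed in the greenhouse for twelve to sixteen days before scoring.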

[8] = system: duck salad (Heteranthera limosa); test: Test B flood test; details: for Plant response rating, Ducksalad: Postemergence (flood test species)
Summary of the method: as §2

[9] = system: smallflower flatsedge (Cyperus difformis); test: Test B flood test; details: for Plant response rating, S. Flatsedge: Postemergence (flood test species)
Summary of the method: as §2

[10] = system: bamyardgrass (Echinochloa crus-galli); test: Test B flood test; details: for Plant response rating, Barnyardgrass: Postemergence (flood test species)
Summary of the method: as §2

[11] = Preemergence, Rate 62 g/ha, scale of 0 to 10
[12] = Rate 62 g/ha, Postemergence (flood test)
[13] = Rate 125 g/ha, Postemergence section (flood test species)

## Cc1cnc(-n2cnc(C(F)(F)F)c2)nc1C(=O)c1cccc(C(F)(F)F)c1 [Compound 61]
[1]; [11]
  Plant response rating, Wheat: 1
[1]; Rate 62 g/ha, Postemergence
  Wheat plant response rating: 3
[1]; Rate 125 g/ha, Postemergence
  Wheat plant response rating: 3
[1]; Rate 125 g/ha, Preemergence
  Plant response rating, Wheat: 3
[1]; Rate 250 g/ha, Postemergence
  Plant response rating, Wheat: 3
[1]; Rate 250 g/ha, Preemergence
  Plant response rating, Wheat: 4
[1]; Rate 500 g/ha, Postemergence
  Plant response rating, Wheat: 4
[1]; Rate 500 g/ha, Preemergence
  Plant response rating, Wheat: 4
Soybean (Glycine max); [11]
  Plant response rating, Soybean: 0
Soybean (Glycine max); Rate 62 g/ha, Postemergence
  Soybean plant response rating: 4
Soybean (Glycine max); Rate 125 g/ha, Postemergence
  Soybean plant response rating: 5
Soybean (Glycine max); Rate 125 g/ha, Preemergence
  Plant response rating, Soybean: 1
Soybean (Glycine max); Rate 250 g/ha, Postemergence
  Plant response rating, Soybean: 5
Soybean (Glycine max); Rate 250 g/ha, Preemergence
  Plant response rating, Soybean: 1
Soybean (Glycine max); Rate 500 g/ha, Postemergence
  Plant response rating, Soybean: 6
Soybean (Glycine max); Rate 500 g/ha, Preemergence
  Plant response rating, Soybean: 2
Wild oat (Avena fatua); [11]
  Plant response rating, Wild oats: 4
Wild oat (Avena fatua); Rate 62 g/ha, Postemergence
  Wild oats plant response rating: 3
Wild oat (Avena fatua); Rate 125 g/ha, Postemergence
  Wild oats plant response rating: 3
Wild oat (Avena fatua); Rate 125 g/ha, Preemergence
  Plant response rating, Wild oats: 5
Wild oat (Avena fatua); Rate 250 g/ha, Postemergence
  Plant response rating, Wild oats: 3
Wild oat (Avena fatua); Rate 250 g/ha, Preemergence
  Plant response rating, Wild oats: 7
Wild oat (Avena fatua); Rate 500 g/ha, Postemergence
  Plant response rating, Wild oats: 5
Wild oat (Avena fatua); Rate 500 g/ha, Preemergence
  Plant response rating, Wild oats: 8
[2]; [11]
  Plant response rating, Nutsedge: 0
[2]; Rate 62 g/ha, Postemergence
  Nutsedge plant response rating: 0
[2]; Rate 125 g/ha, Postemergence
  Nutsedge plant response rating: 0
[2]; Rate 125 g/ha, Preemergence
  Plant response rating, Nutsedge: 0
[2]; Rate 250 g/ha, Postemergence
  Plant response rating, Nutsedge: 0
[2]; Rate 250 g/ha, Preemergence
  Plant response rating, Nutsedge: 0
Corn (Zea mays); [11]
  Plant response rating, Corn: 1
Corn (Zea mays); Rate 62 g/ha, Postemergence
  Corn plant response rating: 2
Corn (Zea mays); Rate 125 g/ha, Postemergence
  Corn plant response rating: 3
Corn (Zea mays); Rate 125 g/ha, Preemergence
  Plant response rating, Corn: 1
Corn (Zea mays); Rate 250 g/ha, Postemergence
  Plant response rating, Corn: 3
Corn (Zea mays); Rate 250 g/ha, Preemergence
  Plant response rating, Corn: 1
Corn (Zea mays); Rate 500 g/ha, Postemergence
  Plant response rating, Corn: 4
Corn (Zea mays); Rate 500 g/ha, Preemergence
  Plant response rating, Corn: 2
[3]; [11]
  Plant response rating, Crabgrass: 3
[3]; Rate 62 g/ha, Postemergence
  Crabgrass plant response rating: 3
[3]; Rate 125 g/ha, Postemergence
  Crabgrass plant response rating: 3
[3]; Rate 125 g/ha, Preemergence
  Plant response rating, Crabgrass: 5
[3]; Rate 250 g/ha, Postemergence
  Plant response rating, Crabgrass: 7
[3]; Rate 250 g/ha, Preemergence
  Plant response rating, Crabgrass: 8
[3]; Rate 500 g/ha, Postemergence
  Plant response rating, Crabgrass: 9
[3]; Rate 500 g/ha, Preemergence
  Plant response rating, Crabgrass: 10
[4]; [11]
  Plant response rating, Giant foxtail: 8
[4]; Rate 62 g/ha, Postemergence
  Giant foxtail plant response rating: 2
[4]; Rate 125 g/ha, Postemergence
  Giant foxtail plant response rating: 4
[4]; Rate 125 g/ha, Preemergence
  Plant response rating, Giant foxtail: 9
[4]; Rate 250 g/ha, Postemergence
  Plant response rating, Giant foxtail: 5
[4]; Rate 250 g/ha, Preemergence
  Plant response rating, Giant foxtail: 10
[4]; Rate 500 g/ha, Postemergence
  Plant response rating, Giant foxtail: 9
[4]; Rate 500 g/ha, Preemergence
  Plant response rating, Giant foxtail: 10
[5]; [11]
  Plant response rating, Bedstraw: 3
[5]; Rate 62 g/ha, Postemergence
  Bedstraw plant response rating: 8
[5]; Rate 125 g/ha, Postemergence
  Bedstraw plant response rating: 8
[5]; Rate 125 g/ha, Preemergence
  Plant response rating, Bedstraw: 4
[5]; Rate 250 g/ha, Postemergence
  Plant response rating, Bedstraw: 9
[5]; Rate 250 g/ha, Preemergence
  Plant response rating, Bedstraw: 6
[5]; Rate 500 g/ha, Postemergence
  Plant response rating, Bedstraw: 9
[5]; Rate 500 g/ha, Preemergence
  Plant response rating, Bedstraw: 9
[6]; [11]
  Plant response rating, Sugarbeets: 10
[6]; Rate 62 g/ha, Postemergence
  Sugarbeets plant response rating: 9
[6]; Rate 125 g/ha, Postemergence
  Sugarbeets plant response rating: 10
[6]; Rate 125 g/ha, Preemergence
  Plant response rating, Sugarbeets: 10
[6]; Rate 250 g/ha, Postemergence
  Plant response rating, Sugarbeets: 10
[6]; Rate 250 g/ha, Preemergence
  Plant response rating, Sugarbeets: 10
[6]; Rate 500 g/ha, Postemergence
  Plant response rating, Sugarbeets: 10
[6]; Rate 500 g/ha, Preemergence
  Plant response rating, Sugarbeets: 10
Rape (Brassica napus); [11]
  Plant response rating, Rape: 4
Rape (Brassica napus); Rate 62 g/ha, Postemergence
  Rape plant response rating: 6
Rape (Brassica napus); Rate 125 g/ha, Postemergence
  Rape plant response rating: 7
Rape (Brassica napus); Rate 125 g/ha, Preemergence
  Plant response rating, Rape: 8
Rape (Brassica napus); Rate 250 g/ha, Postemergence
  Plant response rating, Rape: 8
Rape (Brassica napus); Rate 250 g/ha, Preemergence
  Plant response rating, Rape: 9
Rape (Brassica napus); Rate 500 g/ha, Postemergence
  Plant response rating, Rape: 9
Rape (Brassica napus); Rate 500 g/ha, Preemergence
  Plant response rating, Rape: 9
[7]; [11]
  Plant response rating, Velvetleaf: 9
[7]; Rate 62 g/ha, Postemergence
  Velvetleaf plant response rating: 7
[7]; Rate 125 g/ha, Postemergence
  Velvetleaf plant response rating: 7
[7]; Rate 125 g/ha, Preemergence
  Plant response rating, Velvetleaf: 10
[7]; Rate 250 g/ha, Postemergence
  Plant response rating, Velvetleaf: 8
[7]; Rate 250 g/ha, Preemergence
  Plant response rating, Velvetleaf: 10
[7]; Rate 500 g/ha, Postemergence
  Plant response rating, Velvetleaf: 8
[7]; Rate 500 g/ha, Preemergence
  Plant response rating, Velvetleaf: 10
Rice (Oryza sativa); [12]
  Rice plant response rating: 0
Rice (Oryza sativa); [13]
  Rice plant response rating: 0
Rice (Oryza sativa); Rate 250 g/ha
  Plant response rating, Rice: 2
Rice (Oryza sativa); Rate 500 g/ha
  Plant response rating, Rice: 2
[8]; [12]
  Ducksalad plant response rating: 0
[8]; [13]
  Ducksalad plant response rating: 1
[8]; Rate 250 g/ha
  Plant response rating, Ducksalad: 3
[8]; Rate 500 g/ha
  Plant response rating, Ducksalad: 5
[9]; [12]
  S. Flatsedge plant response rating: 3
[9]; [13]
  S. Flatsedge plant response rating: 7
[9]; Rate 250 g/ha
  Plant response rating, S. Flatsedge: 8
[9]; Rate 500 g/ha
  Plant response rating, S. Flatsedge: 9
[10]; [12]
  Barnyardgrass plant response rating: 2
[10]; [13]
  Barnyardgrass plant response rating: 3
[10]; Rate 250 g/ha
  Plant response rating, Barnyardgrass: 3
[10]; Rate 500 g/ha
  Plant response rating, Barnyardgrass: 4
